{
  "source": "patent US20180200368A1",
  "about": "“DISRUPTION OR ALTERATION OF MICROBIOLOGICAL FILMS” (UNIVERSITEIT GENT, priority 2015, published 2018)",
  "assay_in_all_cases": "Bacterial viability of biofilm after VNB cluster disruption and tobramycin treatment",
  "type_in_all_cases": "cell-based",
  "key": {"[1]": {"test_system": "Staphylococcus aureus Mu50 biofilms", "details": "70 nm AuNPs + single 7 ns pulse of 561 nm laser (2.8 J/cm2), then tobramycin 1024 μg/mL for 24 hours at 37° C.", "protocol": "(§1) In the study, the synergistic effect of vapour nanobubble mediated cluster disruption and antibiotic treatment was evaluated for 3 types of bacteria. As gram-negatives, Burkholderia multivorans LMG18825 and Pseudomonas aeruginosa LESB58 were selected. Staphylococcus aureus Mu50, often implicated in skin and soft tissue infections, was chosen as a challenging representative of gram-positive bacteria. AuNPs were evaluated for achieving efficient loading and disruption of biofilm clusters. […] The Bacteria are stained with SYTO59 and the gold particles were detected by reflection of the laser light.\n(§2) In further experiments, the synergistic effect of VNB biofilm cluster disruption with relevant antibiotics or disinfectants is evaluated. The biofilm first received a laser treatment for cluster disruption, followed by treatment with tobramycin. Proper controls were taken into account: untreated control, only AuNPs, only laser treatment, VNBs only, AuNPs with tobramycin. Each location in the biofilm received a single 7 ns pulse of 561 nm laser light (2.8 J/cm2) followed by Tobramycin treatment at 32 μg/mL, 16 μg/mL and 1024 μg/mL for Burkholderia multivorans, Pseudomonas aeruginosa and Staphylococcus aureus biofilms, respectively. The bacterial viability following vapour nanobubble generation and antibiotic treatment is shown in FIG. 5 The different experiments are as follows: […]"}, "[2]": {"test_system": "Burkholderia multivorans LMG18825 biofilms", "details": "70 nm AuNPs + single 7 ns pulse of 561 nm laser (2.8 J/cm2), then tobramycin 32 μg/mL for 24 hours at 37° C.; vs tobramycin alone", "protocol": "as §1, §2"}, "[3]": {"test_system": "Pseudomonas aeruginosa LESB58 biofilms", "protocol": "as §1\nas §2, with “respectively.” for “respectively. The bacterial viability following vapour nanobubble generation and antibiotic treatment is shown in FIG. 5 The different experiments are as follows:”\nIn another experiment, the effect of applying different laser pulses on the biofilm was evaluated. […]"}},
  "data": [
    {"compound": "NC[C@H]1O[C@H](O[C@H]2[C@H](O)[C@@H](O[C@H]3O[C@H](CO)[C@@H](O)[C@H](N)[C@H]3O)[C@H](N)C[C@@H]2N)[C@H](N)C[C@@H]1O", "note": "[tobramycin]", "values": [
      {"measurement": "CFU decrease of combined VNB-tobramycin treatment as compared to tobramycin alone", "setting": "[1]", "value": "~10", "unit": "times"},
      {"measurement": "increased eradication potency of tobramycin by use of VNBs", "setting": "[2]", "value": "~50", "unit": "times"},
      {"measurement": "CFU decrease in comparison with treatment with tobramycin alone", "setting": "[3]; 10 laser pulses of 7 ns of 561 nm (2.8 J/cm2) per location (10× VNB formation), then tobramycin for 24 hours at 37° C.", "value": "~4000", "unit": "times"},
      {"measurement": "CFU decrease of combined VNB-tobramycin treatment as compared to tobramycin alone", "setting": "[3]; 70 nm AuNPs + single 7 ns pulse of 561 nm laser (2.8 J/cm2), then tobramycin 16 μg/mL for 24 hours at 37° C.", "value": "~20", "unit": "times"}
    ]}
  ]
}
